One series is described as follows: in vitro. The note with it: male, CD-1, mouse. The method, boiled down: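 Percent remaining relative to time 0 and half-life (single-phase exponential fit) were derived from LC-MS/MS measurement of the dosed prodrug and its expected drug, PEA. Incubations contained 1 μM test article at 37 °C, were initiated with cofactor cocktail and were sampled up to 60 min.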

Series [1] in a line: Plasma stability (37° C., pH 7.4), mouse. The format is in vitro ADME, CD-1 mouse. The settings on record: for half-life at 1 μM: male, CD-1, mouse, plasma; for % Remaining of Initial (n = 1): Mouse plasma; for % Remaining of Initial: n = 1. The protocol: (§1) Studies were carried out in mixed-gender human plasma (Lot #GLP530-5), male Sprague-Dawley rat (Lot #RAT297944, RAT313140), male CD-1 mouse (Lot #MSE237700), and male Beagle dog (Lot #BGL87670, BGL82614), collected on sodium heparin. Plasma was adjusted to pH 7.4 prior to initiating the experiments. DMSO stocks were first prepared for the test articles. Aliquots of the DMSO solutions were dosed into 700 μL of plasma, which had been pre-warmed to 37° C., at a final test article concentration of 1 μM. […] Samples were stored at 4° C. until the end of the experiment. After the final time point was sampled, the plate was mixed and then centrifuged at 3,000 rpm for 10 minutes. Calibration standards were prepared in matched matrix. […] Analytical conditions are outlined in Appendix 8-1.
as §1, with “#AS1650-2),” for “#GLP530-5),”, “#RAT297944),” for “#RAT297944, RAT313140),”, “CD-I” for “CD-1”, “#BGL91384),” for “#BGL87670, BGL82614),”, “10-1.” for “8-1.”
Studies were carried out in mixed-gender human plasma (Lot #AS1650-2), male Sprague-Dawley rat (Lot #RAT297944), male CD-1 mouse (Lot #MSE237700), and male Beagle dog (Lot #BGL91384), collected on sodium heparin. Plasma was adjusted to pH 7.4 prior to initiating the experiments. DMSO stocks were first prepared for test articles. […] Samples were stored at 4° C. until the end of experiment. After the final time point was sampled, the plate was mixed and then centrifuged at 3,000 rpm for 10 minutes. Calibration standards were prepared in matched matrix. […] Analytical conditions are outlined in Appendix 13-1.
Studies were carried out in mixed-gender human plasma (Lot #AS 1650-2), male Sprague-Dawley rat (Lot #RAT320835), male CD-1 mouse (Lot #MSE260693), and 6 male Beagle dog (Lot #BGL91384), on sodium heparin. Plasma was adjusted to pH 7.4 prior to initiating the experiments. DMSO stocks were first prepared for the test articles. Aliquots of the DMSO solutions were dosed into 700 μL of plasma, which had been pre-warmed to 37° C., at a final test article concentration of 1 μM. […] Samples were stored at 4° C. until the end of the experiment. After the final time point was sampled, the plate was mixed and then centrifuged at 3,000 rpm for 10 minutes. Calibration standards were prepared in matched matrix. […] Analytical conditions are outlined in Appendix 17-1.

Each structure is given as a SMILES string.

Take `CCCCCCCCCCCCCCCC(=O)NCCOC(=O)CCC(=O)OCC(COC(=O)CCC)OC(=O)CCC` (stereo not drawn) [Compound I-11]: the “Concentration (μM) of analyte PEA, 0 min” value in the series “in vitro” (0 min, 1 μM) came to 0 µM. Moreover, in the series “in vitro” (10 min, 1 μM), the “Concentration (μM) of analyte PEA, 10 min” value is 0.021 µM. For the same compound, the “Concentration (μM) of analyte PEA, 20 min” value in “in vitro” (20 min, 1 μM) stood at 0.059 µM. Besides, the “Concentration (μM) of analyte PEA, 30 min” value in the series “in vitro” (30 min, 1 μM) amounted to 0.12 µM. Also, the “Concentration (μM) of analyte PEA, 60 min” value in “in vitro” (60 min, 1 μM) was determined as 0.084 µM. The “% Remaining of Initial (n = 1), 0 min” value in the series “in vitro” (s9, 0 h, 1 μM) is reported as 100%; in series [1] (mouse plasma, test article 1 μM, 37° C., pH 7.4, 0 min) it was 100%. Also, the “% Remaining of Initial (n = 1), 10 min” value in “in vitro” (s9, 10 min, 1 μM) is <1.0%. Besides, in “in vitro” (s9, 20 min, 1 μM), the “% Remaining of Initial (n = 1), 20 min” value is given as <1.0%. The “% Remaining of Initial (n = 1), 30 min” value in “in vitro” (s9, 0.5 h, 1 μM) is <1.0%; in series [1] (mouse plasma, test article 1 μM, 37° C., pH 7.4, 30 min), 2.1%. Moreover, the “% Remaining of Initial (n = 1), 60 min” value in the series “in vitro” (s9, 1 h, 1 μM) was <1.0%; in series [1] (mouse plasma, test article 1 μM, 37° C., pH 7.4, 60 min), 1.9%. Moreover, the microsomal CLint (commonly the rate of metabolic loss divided by the concentration) at 1 μM in “in vitro” (s9, CLint (mL/min/mg protein)) was > 691 µL/min/mg. Also, the half-life (commonly the time in which the quantity being followed falls by half) at 1 μM in “in vitro” (s9, Half-life (min)) was < 1 min; in series [1] (pH 7.4, mouse plasma, test article 1 μM, 37° C., pH 7.4, read-out: Half-life), 3 min. Further, the “% Remaining of Initial (n = 1), 15 min” value in series [1] (mouse plasma, test article 1 μM, 37° C., pH 7.4, 15 min) is given as 2.9%. Moreover, the “% Remaining of Initial (n = 1), 120 min” value in series [1] (mouse plasma, test article 1 μM, 37° C., pH 7.4, 120 min) is reported as <1.0%.

In the case of `CCCCC/C=C\C/C=C\CCCCCCCC(=O)OCC(COC(=O)CCC(=O)OCCNC(=O)CCCCCCCCCCCCCCC)OC(=O)CCCCCCC/C=C\C/C=C\CCCCC` (stereo not drawn) [Compound I-13], the “Concentration, analyte PEA” value in the series “in vitro” (0 min, 1 μM) was 12 nM; in “in vitro” (10 min, 1 μM), 50 nM; in “in vitro” (20 min, 1 μM), 73 nM; in the series “in vitro” (30 min, 1 μM), 96 nM; in “in vitro” (60 min, 1 μM), 89 nM. Besides, the “% Remaining of Initial (n = 1)” value in the series “in vitro” (s9, 0 h, 1 μM) amounted to 100%; in “in vitro” (s9, 10 min, 1 μM) it was 97%; in “in vitro” (s9, 20 min, 1 μM), 71%; in the series “in vitro” (s9, 0.5 h, 1 μM), 81%; in the series “in vitro” (s9, 1 h, 1 μM), 57%; in series [1] (0 min, 1 μM) it was 100%. The “% Remaining of Initial (n = 1)” value is 82% in series [1] (15 min, 1 μM); 71% in series [1] (30 min, 1 μM); 49% in series [1] (60 min, 1 μM); 35% in series [1] (120 min, 1 μM). Moreover, the microsomal CLint at 1 μM in “in vitro” (s9, CLint) is < 11.6 µL/min/mg; in “in vitro” (s9, CLint, calculated (in parentheses)), 9.51 µL/min/mg. The half-life at 1 μM in “in vitro” (s9, Half-life) is > 60 min; in “in vitro” (s9, Half-life, calculated (in parentheses)), 73 min; in series [1] (pH 7.4, Mouse plasma, 1 μM, read-out: Half-life) it was 70 min.

For `CCCCCCCCCCCCCCCC(=O)NCCOC(=O)CCC(=O)OC(COC(=O)CCC)COC(=O)CCC` [Compound I-16], the “Measured concentration of PEA (analyte)” value in “in vitro” (0 min, 1 μM) turned out to be 0 µM; in the series “in vitro” (10 min, 1 μM) it was 0.10 µM; in the series “in vitro” (20 min, 1 μM), 0.17 µM; in “in vitro” (30 min, 1 μM) it was 0.18 µM; in “in vitro” (60 min, 1 μM), 0.26 µM. Also, the “% Remaining of Initial” value in the series “in vitro” (s9, 0 h, 1 μM) is reported as 100%; in “in vitro” (s9, 10 min, 1 μM), 2.0%; in the series “in vitro” (s9, 20 min, 1 μM), <1.0%; in “in vitro” (s9, 0.5 h, 1 μM), <1.0%; in the series “in vitro” (s9, 1 h, 1 μM) it was <1.0%; in series [1] (mouse plasma, 0 min, 1 μM), 100%. Further, the “% Remaining of Initial” value in series [1] (mouse plasma, 15 min, 1 μM) is on record as 10%; in series [1] (mouse plasma, 30 min, 1 μM) it was 4.0%; in series [1] (mouse plasma, 60 min, 1 μM) it was 1.1%; in series [1] (mouse plasma, 120 min, 1 μM), <1.0%. For the same compound, the microsomal CLint at 1 μM in “in vitro” (s9, CLint) is > 69.3 µL/min/mg. Also, the half-life at 1 μM in “in vitro” (s9, Half-life) was < 10 min; in series [1] (pH 7.4, mouse plasma, read-out: Half-life), < 15 min; in series [1] (pH 7.4, mouse plasma, read-out: Half-life, calculated value in parentheses), 4.7 min.

The record behind these values is patent US11547681B2, “N-acylethanolamide derivatives and uses thereof” (ELIEM THERAPEUTICS, INC., priority 2016, dated 2023).
